In patent US9701689B2, “Substituted pyridines and pyridazines as CCR10 receptor inhibitors” (KYOWA HAKKO KIRIN CO., LTD., priority 2012, dated 2017):

Target: T1, human CCR10 (Homo sapiens, UniProt P46092)
T1 construct: expressed in transfected cells; host or cells: KJMGER8 cells (Namalwa cell-derived line), beta-estradiol-induced; hCCR10G16 cells
T1 sequence (P46092 1-362): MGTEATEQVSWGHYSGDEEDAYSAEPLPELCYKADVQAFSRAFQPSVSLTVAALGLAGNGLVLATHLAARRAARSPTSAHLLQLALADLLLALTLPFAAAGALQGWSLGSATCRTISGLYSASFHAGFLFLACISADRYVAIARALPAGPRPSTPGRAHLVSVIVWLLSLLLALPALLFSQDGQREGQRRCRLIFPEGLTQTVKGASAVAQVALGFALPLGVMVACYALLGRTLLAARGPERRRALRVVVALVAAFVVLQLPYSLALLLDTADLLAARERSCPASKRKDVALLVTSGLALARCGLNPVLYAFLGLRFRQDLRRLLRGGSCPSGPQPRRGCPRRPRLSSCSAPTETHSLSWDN
Experiment: CCR10 antagonistic effect: calcium assay of human CCR10 (CTACK-induced increase of intracellular calcium in hCCR10G16 cells)
Assay type: cell-based
Details: at a concentration of not more than 1000 nmol/L; human CCR10-expressing hCCR10G16 cells, 300 nmol/L CTACK added; read-out: inhibition of increase in the calcium ion concentration
In short: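 Inhibition of CTACK-evoked calcium flux (max minus min Fluo-3 fluorescence over ~5 min, FDSS) was calculated against control in β-estradiol-induced human CCR10/Gα16 KJMGER8 cells, after 30 min compound preincubation at 37 °C; CTACK added from a 300 nmol/L solution.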

Structure (SMILES)	inhibition at up to 1 µM
Cc1c(Cl)cccc1Nc1cc(S(N)(=O)=O)ncc1C(=O)N1CCC(c2ccc(F)cc2)CC1 [Compound 57, 4-(3-chloro-2-methylphenylamino)-5-[4-(4-fluorophenyl)piperidine-1-carbonyl]pyridine-2-sulfonamide]	≥ 50%
Cc1cc(F)ccc1Nc1cc(S(=O)(=O)Nc2c(C)noc2C)ncc1C(=O)N1CCC(c2ccc(F)cc2)CC1 [Compound 151, N-(3,5-dimethylisoxazol-4-yl)-4-(4-fluoro-2-methylphenylamino)-5-[4-(4-fluorophenyl)piperidine-1-carbonyl]pyridine-2-sulfonamide]	≥ 50%
Cc1cc(F)ccc1Nc1cc(S(=O)(=O)NC2CCNC2=O)ncc1C(=O)N1CCC(c2ccc(F)cc2)CC1 (stereo not shown) [Compound 142, 4-(4-fluoro-2-methylphenylamino)-5-[4-(4-fluorophenyl)piperidine-1-carbonyl]-N-(2-oxopyrrolidin-3-yl)pyridine-2-sulfonamide]	≥ 50%
Cc1cc(F)ccc1Nc1cc(S(=O)(=O)NC(=O)C2CC2(F)F)ncc1C(=O)N1CCC(c2ccc(F)cc2)CC1 (stereo not shown) [Compound 14, 2,2-difluoro-N-{4-(4-fluoro-2-methylphenylamino)-5-[4-(4-fluorophenyl)piperidine-1-carbonyl]pyridine-2-sulfonyl}cyclopropanecarboxamide]	≥ 50%
Cc1ccc(Nc2cc(S(N)(=O)=O)ncc2C(=O)N2CCC(c3ccc(F)cc3)CC2)cc1C [Compound 107, 4-(3,4-dimethylphenylamino)-5-[4-(4-fluorophenyl)piperidine-1-carbonyl]pyridine-2-sulfonamide]	≥ 50%
Cc1cc(F)ccc1Nc1cc(S(=O)(=O)Nc2ccn(C)n2)ncc1C(=O)N1CCC(c2ccc(F)cc2)CC1 [Compound 153, 4-(4-fluoro-2-methylphenylamino)-5-[4-(4-fluorophenyl)piperidine-1-carbonyl]-N-(1-methyl-1H-pyrazol-3-yl)pyridine-2-sulfonamide]	≥ 50%
Cc1c(Cl)ccc(Nc2cc(S(N)(=O)=O)ncc2C(=O)N2CCC(c3ccc(F)cc3)CC2)c1C [Compound 66, 4-(4-chloro-2,3-dimethylphenylamino)-5-[4-(4-fluorophenyl)piperidine-1-carbonyl]pyridine-2-sulfonamide]	≥ 50%
NS(=O)(=O)c1ncc(C(=O)N2CCC(c3ccc(F)cc3)CC2)c(Nc2ccc3c(c2)CCC3=O)c1Cl [Compound 243, 3-chloro-5-[4-(4-fluorophenyl)piperidine-1-carbonyl]-4-(1-oxo-2,3-dihydro-1H-inden-5-ylamino)pyridine-2-sulfonamide]	≥ 50%
NS(=O)(=O)c1ncc(C(=O)N2CCC(c3ccc(F)cc3)CC2)c(Nc2ccc(F)cc2F)c1Cl [Compound 27, 3-chloro-4-(2,4-difluorophenylamino)-5-[4-(4-fluorophenyl)piperidine-1-carbonyl]pyridine-2-sulfonamide]	≥ 50%
Cc1cc(F)ccc1Nc1c(C(=O)N2CCC(c3ccc(F)cc3)CC2)cnc(S(=O)(=O)Nc2c(C)noc2C)c1Cl [Compound 189, 3-chloro-N-(3,5-dimethylisoxazol-4-yl)-4-(4-fluoro-2-methylphenylamino)-5-[4-(4-fluorophenyl)piperidine-1-carbonyl]pyridine-2-sulfonamide]	≥ 50%
Cc1c(S(=O)(=O)Nc2ccon2)ncc(C(=O)N2CCC(c3ccc(F)cc3)CC2)c1Nc1ccc(F)c(F)c1 [Compound 258, 4-(3,4-difluorophenylamino)-5-[4-(4-fluorophenyl)piperidine-1-carbonyl]-N-(isoxazol-3-yl)-3-methylpyridine-2-sulfonamide]	≥ 50%
Cc1cccc(Nc2c(C(=O)N3CCN(c4ccccc4Cl)CC3)cnc(S(N)(=O)=O)c2Cl)c1 [Compound 206, 3-chloro-5-[4-(2-chlorophenyl)piperazine-1-carbonyl]-4-(m-tolylamino)pyridine-2-sulfonamide]	≥ 50%
COC1(c2ccc(F)cc2)CCN(C(=O)c2cnc(S(N)(=O)=O)c(C)c2Nc2ccccc2C)CC1 [Compound 304, 5-[4-(4-fluorophenyl)-4-methoxypiperidine-1-carbonyl]-3-methyl-4-(o-tolylamino)pyridine-2-sulfonamide]	≥ 50%
Cc1ccc(Nc2c(C(=O)N3CCC(c4ccc(F)cc4)CC3)cnc(S(=O)(=O)Nc3cc(C)ns3)c2C)cc1 [Compound 300, 5-[4-(4-fluorophenyl)piperidine-1-carbonyl]-3-methyl-N-(3-methylisothiazol-5-yl)-4-(p-tolylamino)pyridine-2-sulfonamide]	≥ 50%
NS(=O)(=O)c1ncc(C(=O)N2CCN(c3ccc(F)cc3)C(=O)C2)c(NC2(c3ccccc3)CC2)c1Cl [Compound 278, 3-chloro-5-[4-(4-fluorophenyl)-3-oxopiperazine-1-carbonyl]-4-(1-phenylcyclopropylamino)pyridine-2-sulfonamide]	≥ 50%
Cc1cc(F)ccc1Nc1c(C(=O)N2CCC(c3ccc(F)cc3)CC2)cnc(S(=N)(N)=O)c1Cl (stereo not shown) [Compound 200, 3-chloro-4-(4-fluoro-2-methylphenylamino)-5-[4-(4-fluorophenyl)piperidine-1-carbonyl]pyridine-2-sulfonimidamide]	≥ 50%
NS(=O)(=O)c1cc(Nc2cccc(Cl)c2)c(C(=O)N2CCC(c3ccc(F)cc3)CC2)cn1 [Compound 103, 4-(3-chlorophenylamino)-5-[4-(4-fluorophenyl)piperidine-1-carbonyl]pyridine-2-sulfonamide]	≥ 50%
Cc1ncc(Cl)cc1Nc1c(C(=O)N2CCC(c3ccc(F)cc3)CC2)cnc(S(=O)(=O)Nc2ccon2)c1C [Compound 248, 4-(5-chloro-2-methylpyridin-3-ylamino)-5-[4-(4-fluorophenyl)piperidine-1-carbonyl]-N-(isoxazol-3-yl)-3-methylpyridine-2-sulfonamide]	≥ 50%
Cc1cc(F)ccc1Nc1cc(S(=O)(=O)Nc2cncs2)ncc1C(=O)N1CCC(c2ccc(F)cc2)CC1 [Compound 155, 4-(4-fluoro-2-methylphenylamino)-5-[4-(4-fluorophenyl)piperidine-1-carbonyl]-N-(thiazol-5-yl)pyridine-2-sulfonamide]	≥ 50%
Cc1cccc(Nc2c(C(=O)N3CCC(c4ccc(F)cc4)CC3)cnc(S(N)(=O)=O)c2Cl)c1 [Compound 26, 3-chloro-5-[4-(4-fluorophenyl)piperidine-1-carbonyl]-4-(m-tolylamino)pyridine-2-sulfonamide]	≥ 50%
CC(=O)c1ccc(C)c(NC2=CC=NC(S(N)(=O)=O)C2(Cl)C(=O)N2CCC(c3ccc(F)cc3)CC2)c1 (stereo not shown) [Compound 303, 4-(5-acetyl-2-methylphenylamino)-3-chloro-3-[4-(4-fluorophenyl)piperidine-1-carbonyl]pyridine-2-sulfonamide]	≥ 50%
Cc1ccc(Nc2cc(S(N)(=O)=O)ncc2C(=O)N2CCC(c3ccc(F)cc3)CC2)c(Cl)c1 [Compound 58, 4-(2-chloro-4-methylphenylamino)-5-[4-(4-fluorophenyl)piperidine-1-carbonyl]pyridine-2-sulfonamide]	≥ 50%
